Reference: the NIST ThermoML archive (doi:10.1016/j.jct.2010.12.019)
“And” between values parts separate entries of the source, which are not always exact repeats. Equal values may be shown once. ± gives the expanded uncertainty stated by the source.

Legend:
[1] = activity coefficient (dimensionless); of the first substance listed, at infinite dilution; xn = mol fraction of the nth substance listed; settings: Liquid, Chromatography, x1 = 0
[2] = 293.15 K; 101.33 kPa; Liquid; Pycnometric method

activity coefficient ([1]; 313.15 K) | activity coefficient ([1]; 323.15 K) | activity coefficient ([1]; 333.15 K) | mass density [2] [kg/m3] | Structure (SMILES)
2.8 and 2.88 | 2.89 and 2.9 | 2.93 and 3.03 |  | C#CCCC [1-pentyne] + CCCCn1cc[n+](C)c1.[F][Sb-]([F])([F])([F])([F])[F]
40.4 and 44.6 | 39.5 and 42.7 | 39.2 and 42.7 |  | CCCCCCCC [octane] + CCCCn1cc[n+](C)c1.[F][Sb-]([F])([F])([F])([F])[F]
4.26 and 4.05 | 4.11 and 4.23 | 4.1 and 4.32 |  | C#CCCCC [1-hexyne] + CCCCn1cc[n+](C)c1.[F][Sb-]([F])([F])([F])([F])[F]
32.4 and 32.6 | 30.8 and 33.4 | 30.8 and 32.6 |  | C=CCCCCCCC [1-nonene] + CCCCn1cc[n+](C)c1.[F][Sb-]([F])([F])([F])([F])[F]
19.3 and 21.1 | 17.8 and 19.7 | 15.9 and 16.6 |  | C=CCCCCC [1-heptene] + CCCCn1cc[n+](C)c1.[F][Sb-]([F])([F])([F])([F])[F]
10.1 and 10.5 | 10.2 ± 0.9 | 9.94 and 10.4 |  | C=CCCC [1-pentene] + CCCCn1cc[n+](C)c1.[F][Sb-]([F])([F])([F])([F])[F]
2.33 and 2.46 | 2.14 and 2.3 | 2.01 and 2.07 |  | CCO [ethanol] + CCCCn1cc[n+](C)c1.[F][Sb-]([F])([F])([F])([F])[F]
8.68 and 9.4 | 8.82 and 9.08 | 8.56 and 8.99 |  | C#CCCCCCC [1-octyne] + CCCCn1cc[n+](C)c1.[F][Sb-]([F])([F])([F])([F])[F]
3.13 and 3.22 | 2.82 and 2.96 | 2.51 and 2.75 |  | CCCO [propan-1-ol] + CCCCn1cc[n+](C)c1.[F][Sb-]([F])([F])([F])([F])[F]
1.7 and 1.88 | 1.64 and 1.71 | 1.57 ± 0.13 |  | CO [methanol] + CCCCn1cc[n+](C)c1.[F][Sb-]([F])([F])([F])([F])[F]
11.4 and 11.9 | 10.6 and 10.9 | 10.2 and 10.7 |  | C1CCCC1 [cyclopentane] + CCCCn1cc[n+](C)c1.[F][Sb-]([F])([F])([F])([F])[F]
14 and 13.1 | 13 and 14.1 | 13.4 and 13.8 |  | C=CCCCC [hex-1-ene] + CCCCn1cc[n+](C)c1.[F][Sb-]([F])([F])([F])([F])[F]
37.1 and 38.7 | 34.2 and 35.8 | 31.4 and 34.4 |  | CCCCCCC [heptane] + CCCCn1cc[n+](C)c1.[F][Sb-]([F])([F])([F])([F])[F]
22.9 and 23.4 | 17.2 and 27.1 | 20.4 and 21.5 |  | C1CCCCCCC1 [cyclooctane] + CCCCn1cc[n+](C)c1.[F][Sb-]([F])([F])([F])([F])[F]
5.74 and 6.11 | 5.82 and 6.08 | 5.74 and 6.23 |  | C#CCCCCC [1-heptyne] + CCCCn1cc[n+](C)c1.[F][Sb-]([F])([F])([F])([F])[F]
47.7 and 48.8 | 44.9 and 49.1 | 44.1 and 47.3 |  | CCCCCCCCC [nonane] + CCCCn1cc[n+](C)c1.[F][Sb-]([F])([F])([F])([F])[F]
1.23 and 1.31 | 1.28 and 1.37 | 1.31 and 1.37 |  | c1ccccc1 [benzene] + CCCCn1cc[n+](C)c1.[F][Sb-]([F])([F])([F])([F])[F]
20 and 18.7 | 15.7 and 21.1 | 17.3 and 18.2 |  | C1CCCCCC1 [cycloheptane] + CCCCn1cc[n+](C)c1.[F][Sb-]([F])([F])([F])([F])[F]
3.11 and 2.92 | 3.09 and 3.23 | 3.18 and 3.45 |  | CCc1ccccc1 [ethylbenzene] + CCCCn1cc[n+](C)c1.[F][Sb-]([F])([F])([F])([F])[F]
11.4 and 11.6 | 10.9 and 11.8 | 10.9 and 11.6 |  | C#CCCCCCCC [1-nonyne] + CCCCn1cc[n+](C)c1.[F][Sb-]([F])([F])([F])([F])[F]
 |  |  | 1694.3 ± 3.8 | CCCCn1cc[n+](C)c1.[F][Sb-]([F])([F])([F])([F])[F] [1-butyl-3-methylimidazolium hexafluoroantimonate]
19.6 and 21.5 | 17.6 and 18.3 | 17 and 18.1 |  | CCCCC [pentane] + CCCCn1cc[n+](C)c1.[F][Sb-]([F])([F])([F])([F])[F]
25.7 ± 2.2 | 24.6 and 25.7 | 24.2 and 24.9 |  | C=CCCCCCC [oct-1-ene] + CCCCn1cc[n+](C)c1.[F][Sb-]([F])([F])([F])([F])[F]
28.6 and 27.9 | 26.4 and 28.2 | 26 and 26.6 |  | CCCCCC [hexane] + CCCCn1cc[n+](C)c1.[F][Sb-]([F])([F])([F])([F])[F]
16.4 and 15.4 | 11 and 18.6 | 14.1 and 14.6 |  | C1CCCCC1 [cyclohexane] + CCCCn1cc[n+](C)c1.[F][Sb-]([F])([F])([F])([F])[F]

Structure (SMILES) | activity coefficient ([1]; 313.15 K) | activity coefficient ([1]; 323.15 K) | activity coefficient ([1]; 333.15 K) | mass density [2] [kg/m3]
Cc1ccccc1 [toluene] + CCCCn1cc[n+](C)c1.[F][Sb-]([F])([F])([F])([F])[F] | 1.87 and 1.78 | 1.88 and 1.94 | 1.92 and 1.97 | 
CCC(C)=O [butanone] + CCCCn1cc[n+](C)c1.[F][Sb-]([F])([F])([F])([F])[F] | 0.648 and 0.632 | 0.681 ± 0.058 | 0.702 and 0.718 | 
CC(C)=O [acetone] + CCCCn1cc[n+](C)c1.[F][Sb-]([F])([F])([F])([F])[F] | 0.403 and 0.437 | 0.445 and 0.466 | 0.463 and 0.487 | 
